The source made the active and inactive calls. The rule behind the calls is not given here.
Tested on: GENE-TOX genotoxicity assays, various organisms and cells
Experiment: GENE-TOX mutagenicity studies
Conditions: for call: Assay Type: In vivo carcinogenicity studies
Source text: GENE-TOX provides genetic toxicology (mutagenicity) test data from expert peer review of open scientific literature for more than 3,000 chemicals from the United States Environmental Protection Agency (EPA). GENE-TOX was established to select assay systems for evaluation, review data in the scientific literature, and recommend proper testing protocols and evaluation procedures for these systems.
GENE-TOX covers the years 1991 - 1998. It is no longer updated.
This is an archive assay for GENE-TOX mutagenicity studies.

[1] = Species/Cell Type: Nonhuman, Assay Type: Sister-chromatid exchange (SCE) in vitro, Assay Code: SC2T, Evaluation Type: Evaluation B (Post-1980)
[2] = Species/Cell Type: Escherichia coli polA (W3119 vs P3478), Assay Type: Rec-assay, DNA effects (bacterial DNA repair), Assay Code: RE1-, Evaluation Type: Evaluation A (Pre-1980)
[3] = Species/Cell Type: Bacillus subtilis (H17 vs M45), Assay Type: Rec-assay, spot test, DNA effects (bacterial DNA repair), Assay Code: REW+, Evaluation Type: Evaluation A (Pre-1980)
[4] = Species/Cell Type: Escherichia coli polA (W3119 vs P3478), Assay Type: Rec-assay, DNA effects (bacterial DNA repair), Assay Code: RE1T, Evaluation Type: Evaluation A (Pre-1980)
[5] = Species/Cell Type: Mammalian polychromatic erythrocytes, Assay Type: Micronucleus test, chromosome aberrations, Assay Code: MNTT, Evaluation Type: Evaluation B (Post-1980)
[6] = Species/Cell Type: Salmonella typhimurium (one or more of the five standard strains: TA98, TA100, TA1535, TA1537, and TA1538), Assay Type: Histidine reverse gene mutation, Ames assay, Assay Code: SAL+, Evaluation Type: Evaluation A (Pre-1980)
[7] = Species/Cell Type: Mammalian polychromatic erythrocytes, Assay Type: Micronucleus test, chromosome aberrations, Assay Code: MNTT, Evaluation Type: Evaluation A (Pre-1980)
[8] = Species/Cell Type: Escherichia coli WP2, Assay Type: Tryptophan reverse gene mutation, Assay Code: WP2+, Evaluation Type: Evaluation A (Pre-1980)
[9] = Species/Cell Type: Escherichia coli WP2 UVRA, Assay Type: Tryptophan reverse gene mutation, Assay Code: WPU+, Evaluation Type: Evaluation A (Pre-1980)
[10] = Species/Cell Type: Saccharomyces cerevisiae, Assay Type: Mitotic recombination or gene conversion, Assay Code: YEC+, Evaluation Type: Evaluation A (Pre-1980)
[11] = Species/Cell Type: Drosophila melanogaster, Assay Type: Sex-linked recessive lethal gene mutation, Assay Code: SRL-, Evaluation Type: Evaluation A (Pre-1980)
[12] = Species/Cell Type: Nonhuman, Assay Code: CCGT, Evaluation Type: Evaluation A (Pre-1980)

Nc1ncnc2c1ncn2[C@@H]1O[C@H](CO)C[C@H]1O
mutagenic call (Species/Cell Type: Fischer rat embryo (RLV/1706) cells, Assay Type: Cell transformation, viral enhanced, Assay Code: CTR-, Evaluation Type: Evaluation A (Pre-1980)): inactive; negative | mutagenic call [1]: no conclusion

OCC(S)CS (stereo not drawn)
mutagenic call [2]: inactive; negative

O=C(NO)NO
mutagenic call (Species/Cell Type: Drosophila melanogaster, Assay Type: Aneuploidy, sex chromosome gain, chromosome aberrations, Assay Code: DAGT, Evaluation Type: Evaluation A (Pre-1980)): no conclusion | mutagenic call (Species/Cell Type: Drosophila melanogaster, Assay Type: Aneuploidy, whole sex chromosome loss, chromosome aberrations, Assay Code: DAC-M, Evaluation Type: Evaluation A (Pre-1980)): inactive; negative | mutagenic call (Species/Cell Type: Drosophila melanogaster, Assay Type: Sex-linked recessive lethal gene mutation, Assay Code: SRLT, Evaluation Type: Evaluation A (Pre-1980)): no conclusion

[O-]/[N+](=N\O)c1ccccc1
call (Species/Cell Type: Nonhuman, Assay Code: CCG+, Evaluation Type: Evaluation A (Pre-1980)): active; positive | mutagenic call (Species/Cell Type: Vicia faba, Assay Type: Chromosome aberrations, Assay Code: VIC+, Evaluation Type: Evaluation A (Pre-1980)): active; positive

[O-][n+]1ccccc1
mutagenic call [3]: active; positive | mutagenic call [2]: inactive; negative

CCC1(CC)C(=O)NC(=O)NC1=O
mutagenic call (Species/Cell Type: Nonhuman bone marrow, Assay Type: Chromosome aberrations, in vivo, Assay Code: CY#+, Evaluation Type: Evaluation A (Pre-1980)): active; positive | mutagenic call (Species/Cell Type: Nonhuman, Assay Type: Sister-chromatid exchange (SCE) in vitro, Assay Code: SC2-, Evaluation Type: Evaluation A (Pre-1980)): inactive; negative

CCCCI
mutagenic call [4]: no conclusion

NS(=O)(=O)c1ccc(C(=O)O)cc1
mutagenic call [5]: no conclusion

O=C(O)/C=C/c1ccc([N+](=O)[O-])o1
mutagenic call [6]: active; positive

CC(C)CCC[C@@H](C)[C@H]1CC[C@H]2[C@@H]3C[C@@H]4O[C@@]45C[C@@H](O)CC[C@]5(C)[C@H]3CC[C@]12C
mutagenic call (Species/Cell Type: Syrian hamster embryo (SHE) cells, Assay Type: Cell transformation, clonal assay, Assay Code: CTC+, Evaluation Type: Evaluation A (Pre-1980)): active; positive

COc1cc(NO)ccc1N=Nc1ccccc1
mutagenic call (Species/Cell Type: Salmonella typhimurium (one or more of the five standard strains: TA98, TA100, TA1535, TA1537, and TA1538), Assay Type: Histidine reverse gene mutation, Ames assay, Assay Code: SALT, Evaluation Type: Evaluation A (Pre-1980)): no conclusion

C#C[C@@]1(O)CC[C@@H]2[C@H]3CCC4=CC(=O)CC[C@H]4[C@@H]3CC[C@]21CC
mutagenic call (Species/Cell Type: Rabbit, Sex: Male, Assay Type: Sperm morphology, Assay Code: SPR-, Evaluation Type: Evaluation A (Pre-1980)): inactive; negative

C[C@]12C=CC(=O)C=C1CC[C@@H]1[C@@H]2[C@@H](O)C[C@@]2(C)[C@H]1CC[C@]2(O)C(=O)CO
mutagenic call (Species/Cell Type: Human lymphocytes, Assay Type: Sister-chromatid exchange (SCE) in vivo, Assay Code: SCY+, Evaluation Type: Evaluation B (Post-1980)): active; positive | mutagenic call (Species/Cell Type: Human, Sex: Male, Assay Type: Sperm morphology, Assay Code: SPH+, Evaluation Type: Evaluation A (Pre-1980)): active; positive

COc1ccc2c3c1O[C@H]1[C@@H](O)C=C[C@H]4[C@@H](C2)N(C)CC[C@@]341
mutagenic call [7]: no conclusion | mutagenic call (Species/Cell Type: Mouse, Sex: Male, Assay Type: Sperm morphology, Assay Code: SPI-, Evaluation Type: Evaluation A (Pre-1980)): inactive; negative

O=[N+]([O-])c1ccc(-c2csc(Cl)n2)o1
mutagenic call [8]: active; positive | mutagenic call [9]: active; positive

O=NN(CCCl)C(=O)NCCCO
mutagenic call (Species/Cell Type: Drosophila melanogaster, Assay Type: Sex-linked recessive lethal gene mutation, Assay Code: SRL+, Evaluation Type: Evaluation A (Pre-1980)): active; positive | mutagenic call [10]: active; positive

Cc1cc(Cl)ccc1OCCCC(=O)O
mutagenic call [11]: inactive; negative | mutagenic call (Species/Cell Type: Salmonella typhimurium, Serratia marcesens, Assay Type: Forward and reverse gene mutation, host-mediated assay, Assay Code: HM2-, Evaluation Type: Evaluation A (Pre-1980)): inactive; negative

CCCCN(CCC(=O)O)N=O
mutagenic call [6]: active; positive

CC(=O)Nc1cccc2c1-c1ccccc1C2
mutagenic call (Species/Cell Type: Escherichia coli polA (W3110 vs P3478), Assay Type: Rec-assay, DNA effects (bacterial DNA repair), Assay Code: RE2-, Evaluation Type: Evaluation A (Pre-1980)): inactive; negative | mutagenic call [4]: no conclusion | mutagenic call (Species/Cell Type: Fischer rat embryo (RLV/1706) cells, Assay Type: Cell transformation, viral enhanced, Assay Code: CTR+, Evaluation Type: Evaluation A (Pre-1980)): active; positive | mutagenic call [7]: no conclusion | mutagenic call (Species/Cell Type: Mouse (BALB/c-3T3) cells, Assay Type: Cell transformation, Assay Code: CTB+D, Dose Response: With dose response, Evaluation Type: Evaluation A (Pre-1980)): active; positive | mutagenic call (Species/Cell Type: Mouse lymphoma (L5178Y) cells, Assay Type: Forward gene mutation at the thymidine kinase (TK) locus, chromosome aberrations, Assay Code: L51+*, Activation: With metabolic activation, Evaluation Type: Evaluation A (Pre-1980)): active; positive | call [12]: no conclusion | mutagenic call [1]: no conclusion | mutagenic call (Species/Cell Type: Rat primary hepatocytes, Assay Type: Unscheduled DNA synthesis (UDS) in vitro, DNA effects, Assay Code: UDP-, Evaluation Type: Evaluation A (Pre-1980)): inactive; negative | mutagenic call (Species/Cell Type: Saccharomyces cerevisiae, Assay Type: Mitotic recombination or gene conversion, Assay Code: YEH-, Evaluation Type: Evaluation A (Pre-1980)): inactive; negative | mutagenic call (Species/Cell Type: Salmonella typhimurium (one or more of the five standard strains: TA98, TA100, TA1535, TA1537, and TA1538), Assay Type: Histidine reverse gene mutation, Ames assay, Assay Code: SAL+*, Activation: With metabolic activation, Evaluation Type: Evaluation A (Pre-1980)): active; positive | mutagenic call (Species/Cell Type: Salmonella typhimurium, Assay Type: Forward and reverse gene mutation, host-mediated assay, Assay Code: HMA-, Evaluation Type: Evaluation A (Pre-1980)): inactive; negative | mutagenic call (Species/Cell Type: Syrian hamster embryo (SHE) cells, Assay Type: Cell transformation, clonal assay, Assay Code: CTC-, Evaluation Type: Evaluation A (Pre-1980)): inactive; negative

COP(=O)(OC)OC=C(Cl)Cl
mutagenic call (Species/Cell Type: Allium cepa, Assay Type: Chromosome aberrations, Assay Code: ALC+D, Dose Response: With dose response, Evaluation Type: Evaluation A (Pre-1980)): active; positive | mutagenic call [3]: active; positive | mutagenic call [11]: inactive; negative | mutagenic call [8]: active; positive | mutagenic call [9]: active; positive | mutagenic call (Species/Cell Type: Escherichia coli polA (W3119 vs P3478), Assay Type: Rec-assay, DNA effects (bacterial DNA repair), Assay Code: RE1+, Evaluation Type: Evaluation A (Pre-1980)): active; positive | mutagenic call (Species/Cell Type: Human lymphocytes, Assay Type: Sister-chromatid exchange (SCE) in vitro, Assay Code: SCL-, Evaluation Type: Evaluation A (Pre-1980)): inactive; negative | mutagenic call (Species/Cell Type: Human lymphocytes, Assay Type: Sister-chromatid exchange (SCE) in vitro, Assay Code: SCLT, Evaluation Type: Evaluation B (Post-1980)): no conclusion | mutagenic call (Species/Cell Type: Human, Assay Type: Sister-chromatid exchange (SCE) in vitro, Assay Code: SC1-, Evaluation Type: Evaluation A (Pre-1980)): inactive; negative | mutagenic call (Species/Cell Type: Human, Assay Type: Sister-chromatid exchange (SCE) in vitro, Assay Code: SC1T, Evaluation Type: Evaluation B (Post-1980)): no conclusion | mutagenic call (Species/Cell Type: Mammalian germ cells, Sex: Male, Assay Type: Chromosome aberrations in vivo, Assay Code: CY9-, Evaluation Type: Evaluation A (Pre-1980)): inactive; negative | mutagenic call [5]: no conclusion | mutagenic call (Species/Cell Type: Mouse, Sex: Male, Assay Type: Sperm morphology, Assay Code: SPIT, Evaluation Type: Evaluation A (Pre-1980)): no conclusion | mutagenic call (Species/Cell Type: Nonhuman bone marrow, Assay Type: Chromosome aberrations, in vivo, Assay Code: CY#-, Evaluation Type: Evaluation A (Pre-1980)): inactive; negative | call [12]: no conclusion | mutagenic call (Species/Cell Type: Nonhuman, Assay Type: Sister-chromatid exchange (SCE) in vitro, Assay Code: SC2+D, Dose Response: With dose response, Evaluation Type: Evaluation B (Post-1980)): active; positive | mutagenic call (Species/Cell Type: Nonhuman, Assay Type: Sister-chromatid exchange (SCE) in vivo, Assay Code: SC3-, Evaluation Type: Evaluation B (Post-1980)): inactive; negative | mutagenic call (Species/Cell Type: Rodents, Sex: Male, Assay Type: Dominant lethal test, Assay Code: DLTT, Evaluation Type: Evaluation A (Pre-1980)): no conclusion | mutagenic call [10]: active; positive | mutagenic call [6]: active; positive | mutagenic call (Species/Cell Type: Salmonella typhimurium, Serratia marcesens, Saccharomyces cerevisiae, Assay Type: Forward and reverse gene mutation, mitotic recombination and gene conversion, DNA effects, host-mediated assay, Assay Code: HM5-, Evaluation Type: Evaluation A (Pre-1980)): inactive; negative

From PubChem BioAssay AID1259408 (Genetic Toxicology Data Bank (GENE-TOX), 2018)
